# Data published in patent publication US20190255091A1, “RNAi AGENTS FOR [sequence] B VIRUS INFECTION” (priority 2016, published 2019).
# Test system: Hepatitis B Virus (HBV)
# Assay: Serum HBV DNA levels in pHBV model mice (qPCR)
# Type: in vivo
# Details: single s.c. injection day 1, Example 7
# Source text: Six to eight-week-old female NOD.CB17-Prkdscid/NcrCrl (NOD-SCID) mice were transiently transfected in vivo with MC-HBV1.3 by hydrodynamic tail vein injection (Yang P L et al. “Hydrodynamic injection of viral DNA: a mouse model of acute hepatitis B virus infection,” PNAS USA 2002 Vol. 99: p. 13825-13830), administered 30 to 45 days prior to administration of an HBV RNAi agent or control. MC-HBV1.3 is a plasmid-derived minicircle that contains the same terminally redundant human hepatitis B virus sequence HBV1.3 as in plasmid pHBV1.3 and in the HBV1.3.32 transgenic mice (GenBank accession #V01460) (Guidotti L G et al., “High-level hepatitis B virus replication in transgenic mice,” J Virol 1995 Vol. 69, p 6158-6169.). 5 or 10 μg MC-HBV1.3 in Ringer's Solution in a total volume of 10% of the animal's body weight was injected into mice via tail vein to create pHBV model of chronic HBV infection. The solution was injected through a 27-gauge needle in 5-7 seconds as previously described (Zhang G et al., “High levels of foreign gene expression in hepatocytes after tail vein injection of naked plasmid DNA.” Human Gene Therapy 1999 Vol. 10, p 1735-1737.). At pre-dose (either day 1 pre-dose, day −1, or day −2), Hepatitis B surface antigen (HBsAg) HBsAg expression levels in serum were measured by ELISA and the mice were grouped according to average HBsAg expression levels.
# HBV expression levels were normalized to pre-administration expression levels and to control mice injected with phosphate buffered saline (“PBS”).
# Equal volumes of serum from mice in a group or subgroup were pooled to a final volume of 100 μL. DNA was isolated from serum samples using the QIAamp MinElute Virus Spin Kit (Qiagen, Valencia, Calif.) following the manufacturer's instructions. Sterile 0.9% saline was added to each sample to a final volume of 200 μL. Serum samples were added to tubes containing buffer and protease. Carrier RNA was added to aid in the isolation of small amounts of DNA. […] After incubating 15 min at 56° C., nucleic acids were precipitated from the lysates with ethanol and the entire solution applied to a column. After washing, the samples were eluted into a volume of 50 μL Buffer AVE.
# The number of copies of HBV genomes in DNA isolated from the pHBV mouse model serum was determined by qPCR. Plasmid pSEAP-HBV353-777, encoding a short segment of the HBV genome within the S gene (bases 353-777 of GenBank accession #V01460), was used to create a six log standard curve. Samples with recovery of DNA below 2 standard deviations from the average, based on detection of pHCR/UbC-SEAP were omitted. TaqMan chemistry-based primers and probes with fluor/ZEN/IBFQ are utilized.
# qPCR assays were performed on a 7500 Fast or StepOne Plus Real-Time PCR system (Life Technologies). For evaluation of HBV DNA in serum, DNA was isolated from singlet or duplicate purification steps from pooled group serum samples. Quantitations of HBV DNA and recovery control plasmid were determined by qPCR reactions performed in triplicate. The probes to quantitate HBV and pHCR/UbC-SEAP were included in each reaction.
substance,measurement,setting,value
AD04776: HBV RNAi agent duplex AM05850-AS/AM06150-SS (antisense UACCAAUUUAUGCCUACAGCC; sense GGCUGUAGGCAUAAAUUGGUA; chemistry not fully specified),Average Serum HBV DNA levels normalized to pre-treatment and PBS control,"Day 8, 1.0 mg/kg",0.601 ± 0.388
same,Average Serum HBV DNA levels normalized to pre-treatment and PBS control,"Day 8, 2.0 mg/kg",0.363 ± 0.128
same,Average Serum HBV DNA levels normalized to pre-treatment and PBS control,"Day 8, 4.0 mg/kg",0.224 ± 0.150
same,Average Serum HBV DNA levels normalized to pre-treatment and PBS control,"Day 15, 1.0 mg/kg",0.319 ± 0.125
same,Average Serum HBV DNA levels normalized to pre-treatment and PBS control,"Day 15, 2.0 mg/kg",0.374 ± 0.197
same,Average Serum HBV DNA levels normalized to pre-treatment and PBS control,"Day 15, 4.0 mg/kg",0.263 ± 0.185
same,Average Serum HBV DNA levels normalized to pre-treatment and PBS control,"Day 22, 1.0 mg/kg",0.279 ± 0.138
same,Average Serum HBV DNA levels normalized to pre-treatment and PBS control,"Day 22, 2.0 mg/kg",0.275 ± 0.146
same,Average Serum HBV DNA levels normalized to pre-treatment and PBS control,"Day 22, 4.0 mg/kg",0.335 ± 0.204
same,Average Serum HBV DNA levels normalized to pre-treatment and PBS control,"Day 29, 1.0 mg/kg",0.506 ± 0.525
same,Average Serum HBV DNA levels normalized to pre-treatment and PBS control,"Day 29, 2.0 mg/kg",0.385 ± 0.141
same,Average Serum HBV DNA levels normalized to pre-treatment and PBS control,"Day 29, 4.0 mg/kg",0.449 ± 0.108
same,Average Serum HBV DNA levels normalized to pre-treatment and PBS control,"Day 36, 1.0 mg/kg",0.444 ± 0.407
same,Average Serum HBV DNA levels normalized to pre-treatment and PBS control,"Day 36, 2.0 mg/kg",0.721 ± 0.043
same,Average Serum HBV DNA levels normalized to pre-treatment and PBS control,"Day 36, 4.0 mg/kg",0.603 ± 0.068
AD04982: HBV RNAi agent duplex AM06464-AS/AM06150-SS (antisense UACCAAUUUAUGCCUACAGCC; sense GGCUGUAGGCAUAAAUUGGUA; chemistry not fully specified),Average Serum HBV DNA levels normalized to pre-treatment and PBS control,"Day 8, 1.0 mg/kg",0.358 ± 0.207
same,Average Serum HBV DNA levels normalized to pre-treatment and PBS control,"Day 8, 2.0 mg/kg",0.516 ± 0.163
same,Average Serum HBV DNA levels normalized to pre-treatment and PBS control,"Day 15, 1.0 mg/kg",0.428 ± 0.073
same,Average Serum HBV DNA levels normalized to pre-treatment and PBS control,"Day 15, 2.0 mg/kg",0.523 ± 0.264
same,Average Serum HBV DNA levels normalized to pre-treatment and PBS control,"Day 22, 1.0 mg/kg",0.433 ± 0.220
same,Average Serum HBV DNA levels normalized to pre-treatment and PBS control,"Day 22, 2.0 mg/kg",0.244 ± 0.123
same,Average Serum HBV DNA levels normalized to pre-treatment and PBS control,"Day 29, 1.0 mg/kg",0.474 ± 0.090
same,Average Serum HBV DNA levels normalized to pre-treatment and PBS control,"Day 29, 2.0 mg/kg",0.241 ± 0.085
same,Average Serum HBV DNA levels normalized to pre-treatment and PBS control,"Day 36, 1.0 mg/kg",0.509 ± 0.163
same,Average Serum HBV DNA levels normalized to pre-treatment and PBS control,"Day 36, 2.0 mg/kg",0.543 ± 0.079
